Results as given in patent US10457679B2, “Imidazo[4,5-c]quinolin-2-one compounds and their use in treating cancer” (AstraZeneca AB, priority 2015, dated 2019).
Read-outs that look alike come from different tables or passages of the source.

Legend:
ATM kinase = molecular target: T1, ATM kinase (Homo sapiens, UniProt Q13315); test: Assay a) ATM cellular potency (pATM Ser1981 in X-ray irradiated HT29 cells); format: cell-based; details: HT29 cells, 1 h compound, X-ray ~600 cGy, pATM Ser1981; may be geometric mean of several tests; read-out: Assay a) ATM Cell IC50
T1 construct: endogenous in cells; host or cells: HT29 cells (ECACC #85061109)
T1 sequence (Q13315 whole entry): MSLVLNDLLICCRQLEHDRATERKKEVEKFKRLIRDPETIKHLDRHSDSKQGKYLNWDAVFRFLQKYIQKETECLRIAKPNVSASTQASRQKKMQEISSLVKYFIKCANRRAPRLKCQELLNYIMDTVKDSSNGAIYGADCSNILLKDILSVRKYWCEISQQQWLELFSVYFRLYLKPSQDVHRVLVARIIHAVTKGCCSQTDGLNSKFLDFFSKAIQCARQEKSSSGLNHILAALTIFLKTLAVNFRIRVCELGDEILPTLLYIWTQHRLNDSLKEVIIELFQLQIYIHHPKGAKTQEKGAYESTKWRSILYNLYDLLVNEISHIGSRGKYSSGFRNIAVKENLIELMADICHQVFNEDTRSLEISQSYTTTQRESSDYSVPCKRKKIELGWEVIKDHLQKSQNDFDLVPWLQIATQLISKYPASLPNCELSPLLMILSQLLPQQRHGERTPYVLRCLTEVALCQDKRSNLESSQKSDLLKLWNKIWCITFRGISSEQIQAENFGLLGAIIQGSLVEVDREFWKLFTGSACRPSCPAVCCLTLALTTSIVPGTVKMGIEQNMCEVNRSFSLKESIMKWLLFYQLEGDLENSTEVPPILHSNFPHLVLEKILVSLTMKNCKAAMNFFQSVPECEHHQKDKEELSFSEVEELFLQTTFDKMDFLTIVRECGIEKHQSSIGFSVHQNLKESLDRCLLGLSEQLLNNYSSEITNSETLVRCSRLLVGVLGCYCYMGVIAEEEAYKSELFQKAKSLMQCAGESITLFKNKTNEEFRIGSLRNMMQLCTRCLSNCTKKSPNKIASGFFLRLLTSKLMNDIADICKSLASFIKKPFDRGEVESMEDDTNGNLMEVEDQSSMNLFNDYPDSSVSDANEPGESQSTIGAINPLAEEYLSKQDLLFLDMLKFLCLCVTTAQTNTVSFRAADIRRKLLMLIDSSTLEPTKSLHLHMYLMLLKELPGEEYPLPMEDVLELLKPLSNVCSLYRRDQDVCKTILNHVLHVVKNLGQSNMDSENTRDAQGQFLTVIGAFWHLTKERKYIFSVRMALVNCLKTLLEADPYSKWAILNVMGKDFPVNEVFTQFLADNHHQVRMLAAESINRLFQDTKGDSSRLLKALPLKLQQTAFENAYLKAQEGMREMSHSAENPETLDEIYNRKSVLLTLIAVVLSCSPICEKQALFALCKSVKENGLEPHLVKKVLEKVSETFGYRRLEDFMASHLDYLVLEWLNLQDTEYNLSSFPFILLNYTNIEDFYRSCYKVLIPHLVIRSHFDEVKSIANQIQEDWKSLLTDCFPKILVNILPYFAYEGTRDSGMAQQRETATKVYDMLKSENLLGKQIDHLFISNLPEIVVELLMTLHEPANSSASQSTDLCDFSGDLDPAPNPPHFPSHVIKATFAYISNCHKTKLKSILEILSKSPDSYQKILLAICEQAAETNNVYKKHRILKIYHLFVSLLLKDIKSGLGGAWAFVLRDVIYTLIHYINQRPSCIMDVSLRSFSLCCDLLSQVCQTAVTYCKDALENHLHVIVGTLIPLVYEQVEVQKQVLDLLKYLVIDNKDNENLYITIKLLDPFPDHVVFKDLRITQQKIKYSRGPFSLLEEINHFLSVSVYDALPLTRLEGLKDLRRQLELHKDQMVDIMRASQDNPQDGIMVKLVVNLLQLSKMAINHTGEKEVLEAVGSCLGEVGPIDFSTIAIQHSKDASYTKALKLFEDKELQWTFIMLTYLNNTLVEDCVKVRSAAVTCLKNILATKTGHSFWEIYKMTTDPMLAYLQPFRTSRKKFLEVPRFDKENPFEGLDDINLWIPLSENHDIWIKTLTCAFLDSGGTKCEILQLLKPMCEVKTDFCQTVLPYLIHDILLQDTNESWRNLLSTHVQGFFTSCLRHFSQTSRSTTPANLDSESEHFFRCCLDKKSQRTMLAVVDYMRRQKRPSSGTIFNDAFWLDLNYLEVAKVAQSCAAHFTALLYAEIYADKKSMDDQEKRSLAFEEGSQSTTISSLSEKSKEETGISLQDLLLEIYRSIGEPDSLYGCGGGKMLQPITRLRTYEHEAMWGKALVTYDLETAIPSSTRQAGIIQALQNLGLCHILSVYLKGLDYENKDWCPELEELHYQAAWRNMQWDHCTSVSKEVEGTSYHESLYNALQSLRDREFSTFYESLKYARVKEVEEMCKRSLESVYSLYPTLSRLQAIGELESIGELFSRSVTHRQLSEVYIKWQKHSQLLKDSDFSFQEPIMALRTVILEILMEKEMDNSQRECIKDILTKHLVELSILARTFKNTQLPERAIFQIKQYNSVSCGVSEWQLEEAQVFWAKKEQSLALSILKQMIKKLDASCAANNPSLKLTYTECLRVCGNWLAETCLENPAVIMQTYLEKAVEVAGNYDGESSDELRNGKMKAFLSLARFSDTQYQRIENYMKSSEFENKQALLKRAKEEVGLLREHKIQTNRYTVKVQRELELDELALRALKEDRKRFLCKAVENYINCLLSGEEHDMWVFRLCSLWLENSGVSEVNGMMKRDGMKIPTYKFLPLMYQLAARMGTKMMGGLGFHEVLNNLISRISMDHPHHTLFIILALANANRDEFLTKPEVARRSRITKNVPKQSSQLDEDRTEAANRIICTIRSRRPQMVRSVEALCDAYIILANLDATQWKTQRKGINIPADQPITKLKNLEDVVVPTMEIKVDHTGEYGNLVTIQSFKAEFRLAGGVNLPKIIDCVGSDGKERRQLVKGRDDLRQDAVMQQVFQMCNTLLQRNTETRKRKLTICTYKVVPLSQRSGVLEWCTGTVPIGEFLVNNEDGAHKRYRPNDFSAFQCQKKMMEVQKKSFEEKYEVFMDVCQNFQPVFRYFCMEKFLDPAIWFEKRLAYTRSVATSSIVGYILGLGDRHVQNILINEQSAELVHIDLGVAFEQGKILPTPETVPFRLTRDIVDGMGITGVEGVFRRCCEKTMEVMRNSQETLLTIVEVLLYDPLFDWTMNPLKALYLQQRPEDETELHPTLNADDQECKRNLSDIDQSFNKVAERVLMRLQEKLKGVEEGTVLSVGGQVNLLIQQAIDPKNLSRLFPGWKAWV
Experimental: The following assays were used to measure the effects of the compounds of the present invention: a) ATM cellular potency assay; b) PI3K cellular potency assay; c) mTOR cellular potency assay; d) ATR cellular potency assay. During the description of the assays, generally: • i. […] IC50 values were calculated using a smart fitting model in Genedata. […] Assay a): ATM Cellular Potency Rationale:
Most ATM molecules in the cell are rapidly phosphorylated on this site after doses of radiation as low as 0.5 Gy, and binding of a phosphospecific antibody is detectable after the introduction of only a few DNA double-strand breaks in the cell.
The rationale of the pATM assay is to identify inhibitors of ATM in cells. HT29 cells are incubated with test compounds for 1 hr prior to X-ray-irradiation. 1 h later the cells are fixed and stained for pATM (Ser1981). The fluorescence is read on the arrayscan imaging platform.
The following morning compounds of Formula (I) in 100% DMSO were added to assay plates by acoustic dispensing. After 1 h incubation at 37° C. and 5% CO2, plates (up to 6 at a time) were irradiated using the X-RAD 320 instrument (PXi) with equivalent to ˜600 cGy. Plates were returned to the incubator for a further 1 h. […] Then 20 μl of 0.1% Triton X100 in PBS was added and incubated for 20 minutes at r.t., to permeabalise cells. Then the plates were washed once with 50 μl/well PBS, using a Biotek EL405 plate washer.
After 1 h incubation at r.t., the plates were washed three times with 50 μl/well PBS, using a Biotek EL405 plate washer, and plates were sealed and kept in PBS at 4° C. until read. Plates were read using an ArrayScan VTI instrument, using an XF53 filter with 10× objective.

mTOR = molecular target: T2, mTOR (Homo sapiens, UniProt P42345); test: Assay d) mTOR cellular potency (phospho-AKT Ser473 in MDA-MB-468 cells); format: cell-based
T2 construct: endogenous in cells; host or cells: MDA-MB-468 cells (ATCC HTB 132)
Experimental: Assay d): mTOR Cellular Potency
This assay was used to measure mTOR inhibition in cells. The aim of the phospho-AKT cell based mechanism of action assay using the Acumen Explorer is to identify inhibitors of either PI3Kα or mTOR-Rictor (Rapamycin insensitive companion of mTOR). This is measured by any decrease in the phosphorylation of the Akt protein at Ser473 (AKT lies downstream of PI3Kα in the signal transduction pathway) in the MDA-MB-468 cells following treatment with compound. Method Details:
MDA-MB-468 cells (human breast adenocarcinoma #ATCC HTB 132) were seeded at 1500 cells/well in 40 μl of DMEM containing 10% FBS and 1% glutamine into Greiner 384 well black flat-bottomed plates. Cell plates were incubated for 18 h in a 37° C. incubator before dosing with compounds of Formula (I) in 100% DMSO using acoustic dispensing. Compounds were dosed in a 12 point concentration range into a randomised plate map. Control wells were generated either by dosing of 100% DMSO (max signal) or addition of a reference compound (a PI3K-β inhibitor) that completely eliminated the pAKT signal (min control). Compounds were then tested by one of two assay protocols A or B:
Plates were incubated at 37° C. for 2 h; cells were then fixed by the addition of 10 μl of a 3.7% formaldehyde solution. After 30 minutes the plates were washed with PBS using a Tecan PW384 plate washer. Wells were blocked and cells permeabilised with the addition of 40 μl of PBS containing 0.5% Tween20 and 1% Marvel™ (dried milk powder) and incubated for 60 minutes at r.t. The plates were washed with PBS containing 0.5% (v/v) Tween20 and 20 μl rabbit anti-phospho AKT Ser473 (Cell Signalling Technologies, #3787) in same PBS-Tween+1% Marvel™ was added and incubated overnight at 4° C.
Plates were washed 3 times with PBS+0.05% Tween 20 using a Tecan PW384. 20 μl of secondary antibody Alexa Fluor 488 anti-Rabbit (Molecular Probes, #A11008) diluted in PBS+0.05% Tween20 containing 1% Marvel™ was added to each well and incubated for 1 h at r.t. Plates were washed three times as before then 20 μl PBS added to each well and plates sealed with a black plate sealer.
The plates were read on an Acumen plate reader as soon as possible, measuring green fluorescence after excitation with 488 nm laser. Using this system IC50 values were generated and quality of plates was determined by control wells. Reference compounds were run each time to monitor assay performance.
The cell plates were then incubated for 2 h at 37° C. before being fixed by the addition of 20 μl 3.7% formaldehyde in PBS/A (1.2% final concentration), followed by a 30 minute room temperature incubation, and then a 2× wash with 150 μl PBS/A using a BioTek ELx406 platewasher. Cells were permeabilised and blocked with 20 μl of assay buffer (0.1% Triton X-100 in PBS/A+1% BSA) for 1 h at room temperature, and then washed 1× with 50 μl PBS/A. Primary phospho-AKT (Ser473) D9E XP® rabbit monoclonal antibody (#4060, Cell Signaling Technology) was diluted 1:200 in assay buffer, 20 μl added per well, and plates were incubated at 4° C. overnight. Cell plates were washed 3× with 200 μl PBS/T, then 20 μl 1:750 dilution in assay buffer of Alexa Fluor® 488 goat anti-rabbit IgG secondary antibody (#A11008, Molecular Probes, Life Technologies), with a 1:5000 dilution of Hoechst 33342, was added per well. Following a 1 h incubation at room temperature, plates were washed 3× with 200 μl PBS/T, and 40 μl PBS w/o Ca, Mg and Na Bicarb (Gibco #14190-094) was added per well.
Stained cell plates were covered with black seals, and then read on the Cell Insight imaging platform (Thermo Scientific), with a 10× objective. The primary channel (Hoechst blue fluorescence 405 nM, BGRFR_386_23) was used to Autofocus and to count number of events (this provided information about cytotoxicity of the compounds tested). The secondary channel (Green 488 nM, BGRFR_485_20) measured pAKT staining. […]

[1] = pAKT Ser473, Protocol B (*); read-out: Assay d) mTOR Cell IC50
[2] = pAKT Ser473, Protocol A (§); read-out: Assay d) mTOR Cell IC50

| IC50 (ATM kinase) | IC50 (mTOR; [1]) | IC50 (mTOR; [2]) | Compound |
| --- | --- | --- | --- |
| 1.32 nM | > 30000 nM | – | CC(C)n1c(=O)n(C)c2cnc3cc(F)c(-c4ccc(OCCCN5CCCC5)nc4F)cc3c21 [Example 13, 7-fluoro-8-[2-fluoro-6-(3-pyrrolidin-1-ylpropoxy)-3-pyridyl]-1-isopropyl-3-methyl-imidazo[4,5-c]quinolin-2-one] |
| 1.59 nM | – | > 30000 nM | CC(C)n1c(=O)n(C)c2cnc3cc(F)c(-c4ccc(OCCCN5CCC5)nc4)cc3c21 [Example 4, 8-[6-[3-(azetidin-1-yl)propoxy]-3-pyridyl]-7-fluoro-1-isopropyl-3-methyl-imidazo[4,5-c]quinolin-2-one] |
| 3.14 nM | – | > 30000 nM | CC(C)n1c(=O)[nH]c2cnc3cc(F)c(-c4ccc(OCCCN5CCCCC5)nc4)cc3c21 [Example 18, 7-Fluoro-1-isopropyl-8-[6-[3-(1-piperidyl)propoxy]-3-pyridyl]-3H-imidazo[4,5-c]quinolin-2-one] |
| 0.686 nM | 3490 nM | – | CC(C)n1c(=O)n(C)c2cnc3ccc(-c4ccc(OCCCN(C)C)nc4F)cc3c21 [Example 10, 8-[6-[3-(dimethylamino)propoxy]-2-fluoro-3-pyridyl]-1-isopropyl-3-methyl-imidazo[4,5-c]quinolin-2-one] |
| < 0.453 nM | – | > 5190 nM | CC(C)n1c(=O)n(C)c2cnc3ccc(-c4ccc(OCCCN5CCCCC5)nc4F)cc3c21 [Example 9, 8-[2-Fluoro-6-[3-(1-piperidyl)propoxy]-3-pyridyl]-1-isopropyl-3-methyl-imidazo[4,5-c]quinolin-2-one] |
| 2.29 nM | – | > 29900 nM | CC(C)n1c(=O)n(C)c2cnc3cc(F)c(-c4ccc(OCCCN5CCC5)nc4F)cc3c21 [Example 16, 8-[6-[3-(azetidin-1-yl)propoxy]-2-fluoro-3-pyridyl]-7-fluoro-1-isopropyl-3-methyl-imidazo[4,5-c]quinolin-2-one] |
| 0.256 nM | 3190 nM | – | CC(C)n1c(=O)n(C)c2cnc3ccc(-c4ccc(OCCCN5CCCC5)nc4)cc3c21 [Example 7, 1-isopropyl-3-methyl-8-[6-(3-pyrrolidin-1-ylpropoxy)-3-pyridyl]imidazo[4,5-c]quinolin-2-one] |
| 0.698 nM | 405 nM | – | CC(C)n1c(=O)n(C)c2cnc3ccc(-c4ccc(OCCCN5CCC5)nc4)cc3c21 [Example 8, 8-[6-[3-(Azetidin-1-yl)propoxy]-3-pyridyl]-1-isopropyl-3-methyl-imidazo[4,5-c]quinolin-2-one] |
| 0.398 nM | – | > 3120 nM | CC(C)n1c(=O)n(C)c2cnc3ccc(-c4ccc(OCCCN(C)C)nc4)cc3c21 [Example 6, 8-[6-[3-(dimethylamino)propoxy]-3-pyridyl]-1-isopropyl-3-methyl-imidazo[4,5-c]quinolin-2-one] |
| 35 nM | > 30000 nM | – | CC(C)n1c(=O)n(C)c2cnc3cc(F)c(-c4ccc(OCCC[N+]5([O-])CCCCC5)nc4)cc3c21 [Metabolite A, 7-Fluoro-1-isopropyl-3-methyl-8-[6-[3-(1-oxidopiperidin-1-ium-1-yl)propoxy]-3-pyridyl]imidazo[4,5-c]quinolin-2-one] |
| 3.51 nM | > 30000 nM | – | CC(C)n1c(=O)n(C)c2cnc3cc(F)c(-c4ccc(OCCCN5CCCCC5)nc4F)cc3c21 [Example 14, 7-fluoro-8-[2-fluoro-6-[3-(1-piperidyl)propoxy]-3-pyridyl]-1-isopropyl-3-methyl-imidazo[4,5-c]quinolin-2-one] |
| 0.799 nM | > 10000 nM | – | CC(C)n1c(=O)n(C)c2cnc3ccc(-c4ccc(OCCCN5CCCC5)nc4F)cc3c21 [Example 12, 8-[2-fluoro-6-(3-pyrrolidin-1-ylpropoxy)-3-pyridyl]-1-isopropyl-3-methyl-imidazo[4,5-c]quinolin-2-one] |
| 0.824 nM | – | > 20000 nM | CC(C)n1c(=O)n(C)c2cnc3cc(F)c(-c4ccc(OCCCN5CCCC5)nc4)cc3c21 [Example 3, 7-Fluoro-1-isopropyl-3-methyl-8-[6-(3-pyrrolidin-1-ylpropoxy)-3-pyridyl]imidazo[4,5-c]quinolin-2-one] |

| Compound | IC50 (ATM kinase) | IC50 (mTOR; [1]) | IC50 (mTOR; [2]) |
| --- | --- | --- | --- |
| CC(C)n1c(=O)n(C)c2cnc3cc(F)c(-c4ccc(OCCCN5CCCCC5)nc4)cc3c21 [Example 2, 7-Fluoro-1-isopropyl-3-methyl-8-[6-[3-(1-piperidyl)propoxy]-3-pyridyl]imidazo[4,5-c]quinolin-2-one] | 0.787 nM | > 30000 nM | – |
